This is an account of results in ChEMBL document CHEMBL4130388, “Recent advances of pyrazole-containing derivatives as anti-tubercular agents” (Eur J Med Chem, 2017).

SMILES strings stand for the structures. Values after ≈ are worked out from the molar mass of the structure shown.

The subject of test [1] is Mycobacterium tuberculosis. The test is described as follows: Growth inhibition of Mycobacterium tuberculosis H37Rv ATCC 27294 at 6.25 ug/ml by BACTEC radiometric method relative to control. Type of test: functional. Conditions: read-out: GI.
Test [2] deals with Mycobacterium tuberculosis. Kind of test: Antitubercular activity against Mycobacterium tuberculosis H37Rv ATCC 27294 at 6.25 ug/ml by BACTEC radiometric method relative to control. Type of test: functional.
Test [3] has as its system Mycobacterium tuberculosis. Kind of test: Antitubercular activity against Mycobacterium tuberculosis H37Rv. The format is functional.
Test [4] concerns Mycobacterium tuberculosis. Kind of test: Antitubercular activity against Mycobacterium tuberculosis spec.210. Type of test: functional.
Test [5] has as its system Mycobacterium tuberculosis. Kind of test: Antitubercular activity against Mycobacterium tuberculosis spec.192. Type of test: functional.
The target in another test is T1, Pantothenate synthetase (Mycobacterium tuberculosis, UniProt P9WIL5).
T1 sequence (P9WIL5 whole entry): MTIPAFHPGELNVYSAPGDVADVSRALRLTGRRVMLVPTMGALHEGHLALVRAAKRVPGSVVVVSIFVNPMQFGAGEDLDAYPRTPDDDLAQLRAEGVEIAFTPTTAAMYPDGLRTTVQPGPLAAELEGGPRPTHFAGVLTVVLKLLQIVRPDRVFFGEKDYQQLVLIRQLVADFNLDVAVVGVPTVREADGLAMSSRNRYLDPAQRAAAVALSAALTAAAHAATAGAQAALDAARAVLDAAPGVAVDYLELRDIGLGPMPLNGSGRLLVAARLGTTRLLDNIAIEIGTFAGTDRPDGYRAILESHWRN
The test is described as follows: Inhibition of Mycobacterium tuberculosis pantothenate synthetase.

Test [6] concerns the target T2, Enoyl-[acyl-carrier-protein] reductase [NADH] (Mycobacterium tuberculosis, UniProt P9WGR1).
T2 sequence (P9WGR1 whole entry): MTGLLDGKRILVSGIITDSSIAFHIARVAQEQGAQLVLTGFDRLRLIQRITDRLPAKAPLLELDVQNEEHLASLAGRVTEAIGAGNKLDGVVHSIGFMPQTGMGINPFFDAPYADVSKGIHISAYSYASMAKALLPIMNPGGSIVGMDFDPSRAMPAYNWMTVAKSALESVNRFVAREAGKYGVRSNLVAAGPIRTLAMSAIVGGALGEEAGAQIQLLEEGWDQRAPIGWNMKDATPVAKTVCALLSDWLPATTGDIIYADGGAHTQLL
The test is described as follows: Inhibition of Mycobacterium tuberculosis InhA using DDCoA as substrate in presence of NADH by fluorimetric method.

In test [7] the test system is Mycobacterium tuberculosis. Kind of test: Antitubercular activity against Mycobacterium tuberculosis. Type of test: functional.
For test [8], the system named is Mycobacterium tuberculosis. Kind of test: Potency index, ratio of pyrazinamide MIC to compound MIC for Mycobacterium tuberculosis. The format is functional.

Regarding `COc1nc2ccc(Br)cc2c2c1C(C)(OCC(O)Cn1ccc(-c3ccc(C)c(C)c3)n1)c1ccccc1-2` (centres undefined), the inhibition of growth at 6.25 µg/mL in test [1] lay in the range of 40 to 88%. In addition, the MIC99 in [2] was found to be 5 µM (≈ 2.92 µg/mL).

On to `COc1ccc(-n2cc(Cn3ncc4c3CCN(C(=O)Nc3ccccc3)C4)nn2)cc1`, for which the MIC in [3], in [4] and in test [5] was 24.7 µM (≈ 10.6 µg/mL) each time. This compound displayed an IC50 against Pantothenate synthetase of 1010 nM.

In the case of `Cc1cc(C)n(Cc2ccc(C(=O)NCc3ccc(F)cc3Cl)cc2)n1`, the IC50 in test [6] was 40 nM.

For the compound `Fc1ccc(-c2nnc(-c3n[nH]cc3-c3ccc(Cl)cc3)o2)cc1`, 25 µg/mL (≈ 73.4 µM) was the least that counted as inhibitory in test [7] (MIC). The Ratio in [8] is 4.

A word on the MIC99: it is an inhibitory concentration at the 99% level, which refers to growth in some studies and to a panel of isolates in others. Read a high MIC99 as weaker potency. Broadly, the MIC is the lowest concentration that inhibits growth of the organism. The low end stands for inhibition by little substance, the high end for a need for much substance. For orientation: IC50 means the midpoint of a concentration-inhibition curve.
